Format in all cases: functional
Assay [1] relates to Streptococcus pneumoniae. Nature of the assay: Antibacterial activity against Streptococcus pneumoniae HMC 1058 harboring S79F, K137N mutation in quinolone-resistant determining regions of ParC gene and 460V mutation in QRDR of ParE gene by agar dilution method. (Agar dilution tests growth on a series of plates holding different concentrations.)
In assay [2] the test system is Streptococcus pneumoniae. Nature of the assay: Antibacterial activity against Streptococcus pneumoniae HMC 1060 harboring S81F mutation in quinolone-resistant determining regions of GyrA gene, S79F, K137N mutation in QRDR of ParC gene and I460V mutation in QRDR of ParE gene by agar dilution method.
In assay [3] the test system is Streptococcus pneumoniae. As to the kind of experiment: Antibacterial activity against Streptococcus pneumoniae HMC 1066 harboring S81F mutation in quinolone-resistant determining regions of GyrA gene, S79F mutation in QRDR of ParC gene and I460V mutation in QRDR of ParE gene by agar dilution method.
Assay [4] relates to Streptococcus pneumoniae. As to the kind of experiment: Antibacterial activity against Streptococcus pneumoniae HMC 1070 harboring S81F mutation in quinolone-resistant determining regions of GyrA gene, D83N mutation in QRDR of ParC gene and I460V mutation in QRDR of ParE gene by agar dilution method.
The subject of assay [5] is Streptococcus pneumoniae. As to the kind of experiment: Antibacterial activity against Streptococcus pneumoniae HMC 1073 harboring S81F mutation in quinolone-resistant determining regions of GyrA gene, and I460V mutation in QRDR of ParE gene by agar dilution method.
Assay [6] relates to Streptococcus pneumoniae. Nature of the assay: Antibacterial activity against Streptococcus pneumoniae HMC 1076 harboring S81F mutation in quinolone-resistant determining regions of GyrA gene, D83N mutation in QRDR of ParC gene and I460V mutation in QRDR of ParE gene by agar dilution method.
The test system of assay [7] is Streptococcus pneumoniae. As to the kind of experiment: Antibacterial activity against Streptococcus pneumoniae HMC 1146 harboring S81F mutation in quinolone-resistant determining regions of GyrA gene, and D435N mutation in QRDR of ParE gene by agar dilution method.
The test system of assay [8] is Streptococcus pneumoniae. As to the kind of experiment: Antibacterial activity against Streptococcus pneumoniae HMC 1147 harboring S81F mutation in quinolone-resistant determining regions of GyrA gene, S79F mutation in QRDR of ParC gene and I460V mutation in QRDR of ParE gene showing efflux to gemifloxacin by agar dilution method.
In assay [9] the test system is Streptococcus pneumoniae. As to the kind of experiment: Antibacterial activity against Streptococcus pneumoniae HMC 1150 harboring S81C mutation in quinolone-resistant determining regions of GyrA gene, S79F mutation in QRDR of ParC gene and I460V mutation in QRDR of ParE gene by agar dilution method.
For assay [10], the system named is Streptococcus pneumoniae. Nature of the assay: Antibacterial activity against Streptococcus pneumoniae HMC 2538 harboring S81Y mutation in quinolone-resistant determining regions of GyrA gene, S79F, K137N mutation in QRDR of ParC gene and I460V mutation in QRDR of ParE gene showing efflux to ciprofloxacin, levofloxacin, gatifloxacin by agar dilution method.
For assay [11], the system named is Streptococcus pneumoniae. Nature of the assay: Antibacterial activity against Streptococcus pneumoniae HMC 5041 harboring S81F and S79F mutation in quinolone-resistant determining regions of GyrA and ParC genes respectively by agar dilution method.
The subject of assay [12] is Streptococcus pneumoniae. Nature of the assay: Antibacterial activity against Streptococcus pneumoniae HMC 1055 harboring S81F mutation in quinolone-resistant determining regions of GyrA gene, S79F, K137N mutation in QRDR of ParC gene and I460V mutation in QRDR of ParE gene by agar dilution method.
For assay [13], the system named is Streptococcus pneumoniae. Nature of the assay: Antibacterial activity against Streptococcus pneumoniae HMC 1059 harboring S81F mutation in quinolone-resistant determining regions of GyrA gene, S79F, K137N mutation in QRDR of ParC gene and I460N mutation in QRDR of ParE gene by agar dilution method.
Assay [14] has as its system Streptococcus pneumoniae. As to the kind of experiment: Antibacterial activity against Streptococcus pneumoniae HMC 1071 harboring S81F mutation in quinolone-resistant determining regions of GyrA gene and S79F, K137N mutation in QRDR of ParC gene by agar dilution method.
Assay [15] relates to Streptococcus pneumoniae. Nature of the assay: Antibacterial activity against Streptococcus pneumoniae HMC 1072 harboring S81F mutation in quinolone-resistant determining regions of GyrA gene, S79Y mutation in QRDR of ParC gene and I460V mutation in QRDR of ParE gene by agar dilution method.
The subject of assay [16] is Streptococcus pneumoniae. As to the kind of experiment: Antibacterial activity against Streptococcus pneumoniae HMC 1074 harboring S81F mutation in quinolone-resistant determining regions of GyrA gene, S79F mutation in QRDR of ParC gene and I460V mutation in QRDR of ParE gene by agar dilution method.
The subject of assay [17] is Streptococcus pneumoniae. Nature of the assay: Antibacterial activity against Streptococcus pneumoniae HMC 1077 harboring S81Y and S79F mutation in quinolone-resistant determining regions of GyrA and ParC genes respectively by agar dilution method.
In assay [18] the test system is Streptococcus pneumoniae. Nature of the assay: Antibacterial activity against Streptococcus pneumoniae HMC 1078 harboring S81F mutation in quinolone-resistant determining regions of GyrA gene, S79F mutation in QRDR of ParC gene and I460V mutation in QRDR of ParE gene by agar dilution method.
The test system of assay [19] is Streptococcus pneumoniae. Nature of the assay: Antibacterial activity against quinolone-resistant Streptococcus pneumoniae […] by agar dilution method.
In assay [20] the test system is Streptococcus pneumoniae. As to the kind of experiment: Antibacterial activity against Streptococcus pneumoniae HMC 1149 harboring S81F and S79Y mutation in quinolone-resistant determining regions of GyrA and ParC genes respectively showing efflux to ciprofloxacin, gemifloxacin by agar dilution method.
The subject of assay [21] is Streptococcus pneumoniae. Nature of the assay: Antibacterial activity against Streptococcus pneumoniae HMC 1151 harboring D83N, K137N mutation in quinolone-resistant determining regions of ParC gene and I460V mutation in QRDR of ParE gene showing efflux to ciprofloxacin, gemifloxacin by agar dilution method.
In assay [22] the test system is Streptococcus pneumoniae. As to the kind of experiment: Antibacterial activity against Streptococcus pneumoniae HMC 1139 harboring S81F mutation in quinolone-resistant determining regions of GyrA gene, S79F, K137N mutation in QRDR of ParC gene and I460V mutation in QRDR of ParE gene by agar dilution method.
In assay [23] the test system is Streptococcus pneumoniae. As to the kind of experiment: Antibacterial activity against Streptococcus pneumoniae HMC 1156 harboring S81F and S79F mutation in quinolone-resistant determining regions of GyrA and ParC genes respectively showing efflux to ciprofloxacin, gemifloxacin by agar dilution method.
The test system of assay [24] is Streptococcus pneumoniae. As to the kind of experiment: Antibacterial activity against Streptococcus pneumoniae HMC 1541 harboring S81Y mutation in quinolone-resistant determining regions of GyrA gene, S79F, K137N mutation in QRDR of ParC gene and I460V mutation in QRDR of ParE gene by agar dilution method.
In assay [25] the test system is Streptococcus pneumoniae. As to the kind of experiment: Antibacterial activity against Streptococcus pneumoniae HMC 2527 harboring S81Y mutation in quinolone-resistant determining regions of GyrA gene, S79F, K137N mutation in QRDR of ParC gene and I460V mutation in QRDR of ParE gene by agar dilution method.
For assay [26], the system named is Streptococcus pneumoniae. As to the kind of experiment: Antibacterial activity against Streptococcus pneumoniae HMC 2536 harboring S81Y mutation in quinolone-resistant determining regions of GyrA gene, S79F, K137N mutation in QRDR of ParC gene and I460V mutation in QRDR of ParE gene by agar dilution method.
The subject of assay [27] is Streptococcus pneumoniae. As to the kind of experiment: Antibacterial activity against Streptococcus pneumoniae HMC 4026 harboring S81Y mutation in quinolone-resistant determining regions of GyrA gene, S79F, K137N mutation in QRDR of ParC gene and I460V mutation in QRDR of ParE gene by agar dilution method.
The subject of assay [28] is Streptococcus pneumoniae. Nature of the assay: Antibacterial activity against Streptococcus pneumoniae HMC 1062 harboring S81F mutation in quinolone-resistant determining regions of GyrA gene, S79F mutation in QRDR of ParC gene and I460V mutation in QRDR of ParE gene by agar dilution method.
The subject of assay [29] is Streptococcus pneumoniae. Nature of the assay: Antibacterial activity against Streptococcus pneumoniae HMC 1068 harboring E85K mutation in quinolone-resistant determining regions of GyrA gene, S79Y, K137N mutation in QRDR of ParC gene and I460V mutation in QRDR of ParE gene showing efflux to ciprofloxacin, levofloxacin by agar dilution method.
The subject of assay [30] is Streptococcus pneumoniae. As to the kind of experiment: Antibacterial activity against penicillin-susceptible Streptococcus pneumoniae ATCC 49619 by agar dilution method.
For assay [31], the system named is Streptococcus pneumoniae. As to the kind of experiment: Antibacterial activity against penicillin-intermediate Streptococcus pneumoniae […] by agar dilution method.
In assay [32] the test system is Streptococcus pneumoniae. As to the kind of experiment: Antibacterial activity against penicillin-resistant Streptococcus pneumoniae […] by agar dilution method.
Assay [33] deals with Streptococcus pneumoniae. As to the kind of experiment: Antibacterial activity against azithromycin-susceptible Streptococcus pneumoniae ATCC 49619 by agar dilution method.
Assay [34] concerns Streptococcus pneumoniae. Nature of the assay: Antibacterial activity against azithromycin-resistant Streptococcus pneumoniae […] by agar dilution method.
In assay [35] the test system is Streptococcus pneumoniae. As to the kind of experiment: Antibacterial activity against quinolone-susceptible Streptococcus pneumoniae ATCC 49619 by agar dilution method.
Assay [36] relates to Streptococcus pneumoniae. Nature of the assay: Antibacterial activity against penicillin-, macrolide-susceptible and quinolone-resistant Streptococcus pneumoniae HMC 1074 harboring S81F, E85K mutation in quinolone-resistant determining regions of GyrA gene, S79F mutation in QRDR of ParC gene and I460V mutation in QRDR of ParE gene after 27 passages with gemifloxacin measured after 10 daily antibiotic-free subculturing by multi-step resistance selection technique.

In brackets after ≈: the same amount, converted by molar mass.

The term MIC denotes the lowest concentration found to suppress growth. A lower MIC goes with greater potency. The term MIC50 denotes an inhibitory concentration at the 50% level, which refers to growth in some studies and to a panel of isolates in others. The MIC90 is the lowest concentration that inhibits either 90% of growth or 90% of the strains tested, depending on the study. Low readings indicate greater potency, high ones weaker potency. With `O=C(O)c1cn(C2CC2)c2cc(N3CCNCC3)c(F)cc2c1=O` [CIPROFLOXACIN], the MIC in the assay on Streptococcus pneumoniae [1] was 16 µg/mL (≈ 48.3 µM); with Streptococcus pneumoniae [2], 16 µg/mL (≈ 48.3 µM); in the assay with Streptococcus pneumoniae [3] it was 16 µg/mL (≈ 48.3 µM); against Streptococcus pneumoniae [4] it was more than 32 µg/mL; against Streptococcus pneumoniae [5], 8 µg/mL (≈ 24.1 µM); against Streptococcus pneumoniae [6], 16 µg/mL (≈ 48.3 µM). The minimum inhibitory concentration (MIC) is 32 µg/mL (≈ 96.6 µM) against Streptococcus pneumoniae [7]; 32 µg/mL (≈ 96.6 µM) in the assay on Streptococcus pneumoniae [8]; 16 µg/mL (≈ 48.3 µM) with Streptococcus pneumoniae [9]; 16 µg/mL (≈ 48.3 µM) against Streptococcus pneumoniae [10]; 16 µg/mL (≈ 48.3 µM) against Streptococcus pneumoniae [11]; 32 µg/mL (≈ 96.6 µM) with Streptococcus pneumoniae [12]. Further, the MIC was 32 µg/mL (≈ 96.6 µM) with Streptococcus pneumoniae [13]; 32 µg/mL (≈ 96.6 µM) in the assay with Streptococcus pneumoniae [14]; more than 32 µg/mL against Streptococcus pneumoniae [15]; 16 µg/mL (≈ 48.3 µM) against Streptococcus pneumoniae [16]; more than 32 µg/mL in the assay on Streptococcus pneumoniae [17]; more than 32 µg/mL against Streptococcus pneumoniae [18]. The MIC was 16 µg/mL (≈ 48.3 µM) in the assay on Streptococcus pneumoniae [20]; 16 µg/mL (≈ 48.3 µM) in the assay with Streptococcus pneumoniae [21]; 32 µg/mL (≈ 96.6 µM) in the assay on Streptococcus pneumoniae [22]; more than 32 µg/mL against Streptococcus pneumoniae [23]; 16 µg/mL (≈ 48.3 µM) against Streptococcus pneumoniae [24]; 16 µg/mL (≈ 48.3 µM) against Streptococcus pneumoniae [25]. For the same compound, the MIC against Streptococcus pneumoniae [26] is 16 µg/mL (≈ 48.3 µM); against Streptococcus pneumoniae [27], more than 32 µg/mL; with Streptococcus pneumoniae [28], more than 32 µg/mL; with Streptococcus pneumoniae [29] it was 32 µg/mL (≈ 96.6 µM). In addition, in the assay with Streptococcus pneumoniae [19], the MIC50 came to 16 µg/mL (≈ 48.3 µM). Moreover, the MIC90 in the assay on Streptococcus pneumoniae [19] is more than 32 µg/mL.

With `C[C@H]1COc2c(N3CCN(C)CC3)c(F)cc3c(=O)c(C(=O)O)cn1c23.C[C@H]1COc2c(N3CCN(C)CC3)c(F)cc3c(=O)c(C(=O)O)cn1c23.O` [LEVOFLOXACIN], the MIC50 in the assay on Streptococcus pneumoniae [30], in the assay with Streptococcus pneumoniae [31], with Streptococcus pneumoniae [32], against Streptococcus pneumoniae [33], in the assay with Streptococcus pneumoniae [34] and against Streptococcus pneumoniae [35] was 1 µg/mL throughout. The compound also registered an MIC50 against Streptococcus pneumoniae [19] of 16 µg/mL. Also, the MIC90 with Streptococcus pneumoniae [30] was determined as 4 µg/mL; with Streptococcus pneumoniae [31], 1 µg/mL; against Streptococcus pneumoniae [32] it was 8 µg/mL; with Streptococcus pneumoniae [33] it was 8 µg/mL; against Streptococcus pneumoniae [34], 2 µg/mL; with Streptococcus pneumoniae [35] it was 1 µg/mL. In the assay with Streptococcus pneumoniae [19], this compound yielded an MIC90 of 16 µg/mL. The lowest concentration to inhibit growth against Streptococcus pneumoniae [36] (MIC) was 64 µg/mL.
